Measurements as given in PMC11277489, “Novel Piperazine Derivatives of Vindoline as Anticancer Agents” (International Journal of Molecular Sciences, 2024).

Legend:
[1] = system: EKVX; test: NCI60 one-dose screen (10 μM), Non-small Cell Lung Cancer; type: cell-based; conditions: Homo sapiens, 10 μM, Non-small Cell Lung Cancer, read-out: Growth percent rate
[2] = system: SF-539; test: NCI60 one-dose screen (10 μM), CNS Cancer; type: cell-based, human; conditions: Homo sapiens; 10 μM; SF-539, CNS Cancer; read-out: Growth percent rate
[3] = system: MCF7; test: NCI60 one-dose screen (10 μM), Breast Cancer; type: cell-based; conditions: Homo sapiens; 10 μM; MCF7, Breast Cancer; read-out: Growth percent rate
[4] = system: SK-MEL-28; test: NCI60 one-dose screen (10 μM), Melanoma; type: cell-based; conditions: Homo sapiens; 10 μM; SK-MEL-28, Melanoma; read-out: Growth percent rate
[5] = system: OVCAR-4; test: NCI60 one-dose screen (10 μM), Ovarian Cancer; type: cell-based; conditions: Homo sapiens; 10 μM; OVCAR-4, Ovarian Cancer; read-out: Growth percent rate
[6] = system: SK-MEL-5; test: NCI60 one-dose screen (10 μM), Melanoma; type: cell-based, human; conditions: Homo sapiens; 10 μM; SK-MEL-5, Melanoma; read-out: Growth percent rate
[7] = system: RXF 393; test: NCI60 one-dose screen (10 μM), Renal Cancer; type: cell-based, human; conditions: Homo sapiens; 10 μM; RXF 393, Renal Cancer; read-out: Growth percent rate
[8] = system: NCI-H322M; test: NCI60 one-dose screen (10 μM), Non-small Cell Lung Cancer; type: cell-based; conditions: Homo sapiens, 10 μM, Non-small Cell Lung Cancer, read-out: Growth percent rate
[9] = system: MOLT-4; test: NCI60 one-dose screen (10 μM), Leukemia; type: cell-based, human; conditions: Homo sapiens; 10 μM; MOLT-4, Leukemia; read-out: Growth percent rate
[10] = system: NCI-H522; test: NCI60 one-dose screen (10 μM), Non-small Cell Lung Cancer; type: cell-based; conditions: Homo sapiens; 10 μM; NCI-H522, Non-small Cell Lung Cancer; read-out: Growth percent rate
[11] = system: A549/ATCC; test: as above; type: cell-based; conditions: Homo sapiens; 10 μM; A549/ATCC, Non-small Cell Lung Cancer; read-out: Growth percent rate
[12] = system: K-562; test: NCI60 one-dose screen (10 μM), Leukemia; type: cell-based; conditions: Homo sapiens, K562; 10 μM; K-562, Leukemia; read-out: Growth percent rate
[13] = system: COLO 205; test: NCI60 one-dose screen (10 μM), Colon Cancer; type: cell-based, human; conditions: Homo sapiens; 10 μM; COLO 205, Colon Cancer; read-out: Growth percent rate
[14] = system: RPMI-8226; test: NCI60 one-dose screen (10 μM), Leukemia; type: cell-based; conditions: Homo sapiens; 10 μM; RPMI-8226, Leukemia; read-out: Growth percent rate
[15] = system: SNB-75; test: NCI60 one-dose screen (10 μM), CNS Cancer; type: cell-based, human; conditions: Homo sapiens; 10 μM; SNB-75, CNS Cancer; read-out: Growth percent rate
[16] = system: SW-620; test: NCI60 one-dose screen (10 μM), Colon Cancer; type: cell-based; conditions: Homo sapiens; 10 μM; SW-620, Colon Cancer; read-out: Growth percent rate
[17] = system: MDA-MB-435; test: NCI60 one-dose screen (10 μM), Melanoma; type: cell-based; conditions: Homo sapiens; 10 μM; MDA-MB-435, Melanoma; read-out: Growth percent rate
[18] = system: 786–0; test: NCI60 one-dose screen (10 μM), Renal Cancer; type: cell-based; conditions: Homo sapiens; 10 μM; 786-0, Renal Cancer; read-out: Growth percent rate
[19] = system: HL-60(TB); test: NCI60 one-dose screen (10 μM), Leukemia; type: cell-based; conditions: Homo sapiens; 10 μM; HL-60(TB), Leukemia; read-out: Growth percent rate
[20] = system: HCC-2998; test: NCI60 one-dose screen (10 μM), Colon Cancer; type: cell-based; conditions: Homo sapiens; 10 μM; HCC-2998, Colon Cancer; read-out: Growth percent rate
[21] = system: A498; test: NCI60 one-dose screen (10 μM), Renal Cancer; type: cell-based; conditions: Homo sapiens; 10 μM; A498, Renal Cancer; read-out: Growth percent rate
[22] = system: SN12C; test: NCI60 one-dose screen (10 μM), Renal Cancer; type: cell-based; conditions: Homo sapiens, 10 μM, Renal Cancer, read-out: Growth percent rate
[23] = system: IGROV1; test: NCI60 one-dose screen (10 μM), Ovarian Cancer; type: cell-based; conditions: Homo sapiens, IGROV-1; 10 μM; IGROV1, Ovarian Cancer; read-out: Growth percent rate
[24] = system: U251; test: NCI60 one-dose screen (10 μM), CNS Cancer; type: cell-based; conditions: Homo sapiens, U-251; 10 μM; U251, CNS Cancer; read-out: Growth percent rate
[25] = system: DU-145; test: NCI60 one-dose screen (10 μM), Prostate Cancer; type: cell-based; conditions: Homo sapiens; 10 μM; DU-145, Prostate Cancer; read-out: Growth percent rate
[26] = system: HOP-62; test: NCI60 one-dose screen (10 μM), Non-small Cell Lung Cancer; type: cell-based; conditions: Homo sapiens; 10 μM; HOP-62, Non-small Cell Lung Cancer; read-out: Growth percent rate
[27] = system: NCI-H23; test: as above; type: cell-based; conditions: Homo sapiens; 10 μM; NCI-H23, Non-small Cell Lung Cancer; read-out: Growth percent rate
[28] = system: UACC-257; test: NCI60 one-dose screen (10 μM), Melanoma; type: cell-based; conditions: Homo sapiens; 10 μM; UACC-257, Melanoma; read-out: Growth percent rate
[29] = system: M14; test: NCI60 one-dose screen (10 μM), Melanoma; type: cell-based; conditions: Homo sapiens; 10 μM; M14, Melanoma; read-out: Growth percent rate
[30] = system: HS 578T; test: NCI60 one-dose screen (10 μM), Breast Cancer; type: cell-based; conditions: Homo sapiens; 10 μM; HS 578T, Breast Cancer; read-out: Growth percent rate
[31] = system: ACHN; test: NCI60 one-dose screen (10 μM), Renal Cancer; type: cell-based; conditions: Homo sapiens, 10 μM, Renal Cancer, read-out: Growth percent rate
[32] = system: HT29; test: NCI60 one-dose screen (10 μM), Colon Cancer; type: cell-based; conditions: Homo sapiens, HT-29; 10 μM; HT29, Colon Cancer; read-out: Growth percent rate
[33] = system: HCT-15; test: NCI60 one-dose screen (10 μM), Colon Cancer; type: cell-based; conditions: Homo sapiens; 10 μM; HCT-15, Colon Cancer; read-out: Growth percent rate
[34] = system: CCRF-CEM; test: NCI60 one-dose screen (10 μM), Leukemia; type: cell-based; conditions: Homo sapiens, 10 μM, Leukemia, read-out: Growth percent rate
[35] = system: SF-268; test: NCI60 one-dose screen (10 μM), CNS Cancer; type: cell-based; conditions: Homo sapiens; 10 μM; SF-268, CNS Cancer; read-out: Growth percent rate
[36] = system: NCI-H460; test: NCI60 one-dose screen (10 μM), Non-small Cell Lung Cancer; type: cell-based; conditions: Homo sapiens; 10 μM; NCI-H460, Non-small Cell Lung Cancer; read-out: Growth percent rate
[37] = system: OVCAR-3; test: NCI60 one-dose screen (10 μM), Ovarian Cancer; type: cell-based; conditions: Homo sapiens; 10 μM; OVCAR-3, Ovarian Cancer; read-out: Growth percent rate
[38] = system: OVCAR-8; test: NCI60 one-dose screen (10 μM), Ovarian Cancer; type: cell-based; conditions: Homo sapiens; 10 μM; OVCAR-8, Ovarian Cancer; read-out: Growth percent rate
[39] = system: 60 human tumor cell lines (NCI60); test: NCI60 one-dose screen (10 μM), whole panel; type: cell-based; conditions: for activity at 10 µM: mean over 60 human cancer cell lines, read-out: Growth percent rate, Mean
[40] = system: CAKI-1; test: NCI60 one-dose screen (10 μM), Renal Cancer; type: cell-based; conditions: Homo sapiens; 10 μM; CAKI-1, Renal Cancer; read-out: Growth percent rate
[41] = system: HCT-116; test: NCI60 one-dose screen (10 μM), Colon Cancer; type: cell-based; conditions: Homo sapiens; 10 μM; HCT-116, Colon Cancer; read-out: Growth percent rate
[42] = system: SK-MEL-2; test: NCI60 one-dose screen (10 μM), Melanoma; type: cell-based; conditions: Homo sapiens; 10 μM; SK-MEL-2, Melanoma; read-out: Growth percent rate

In the case of `CCC12C=CCN3CCC4(c5ccc(OC)cc5N(C)C4C(O)(C(=O)OC)C1OC(=O)CCCBr)C32` (stereo not shown) [Compound 14, 17-(O-4-bromobutanoyl)vindoline], the activity at 10 µM [1] is reported as 91.2%, the activity at 10 µM [2] is reported as 91.9% and the activity at 10 µM [3] is reported as 80.3%. The activity at 10 µM [4] was 105%, the activity at 10 µM [5] was 83.9% and the activity at 10 µM [6] was 84.3%. For the same molecule, the activity at 10 µM [7] was 99.5%, the activity at 10 µM [8] was 101% and the activity at 10 µM [9] was 76.1%. The activity at 10 µM [10] was 79%, the activity at 10 µM [11] was 89.4% and the activity at 10 µM [12] was 79.7%. It also gave an activity at 10 µM [13] of 101%, an activity at 10 µM [14] of 91.4% and an activity at 10 µM [15] of 92.6%. For the same molecule, the activity at 10 µM [16] was 100%, the activity at 10 µM [17] was 104% and the activity at 10 µM [18] was 94.3%. It also gave an activity at 10 µM [19] of 90.5%, an activity at 10 µM [20] of 93.8% and an activity at 10 µM [21] of 90.1%. The activity at 10 µM [22] was 97.4%, the activity at 10 µM [23] was 100% and the activity at 10 µM [24] was 87.2%. For the same molecule, the activity at 10 µM [25] was 99.6%, the activity at 10 µM [26] was 101% and the activity at 10 µM [27] was 93.1%. For the same molecule, the activity at 10 µM [28] was 88.4%, the activity at 10 µM [29] was 95.7% and the activity at 10 µM [30] was 94.5%. It also gave an activity at 10 µM [31] of 99.8%, an activity at 10 µM [32] of 94.1% and an activity at 10 µM [33] of 96.8%. It also gave an activity at 10 µM [34] of 99.8%, an activity at 10 µM [35] of 83.2% and an activity at 10 µM [36] of 97.8%. For the same molecule, the activity at 10 µM [37] was 99.7%, the activity at 10 µM [38] was 93.4% and the “antiproliferative effect (in words)” value ([39]; 10 μM one-dose, NCI60) was “a notable antiproliferative effect was not shown”. It also gave an activity at 10 µM [39] of 92.5%, an activity at 10 µM [40] of 80.9% and an activity at 10 µM [41] of 87%. The activity at 10 µM [42] was 103%.
`CC[C@]12C=CCN3CC[C@@]4(c5ccc(OC)cc5N(C)[C@H]4[C@@](O)(C(=O)OC)[C@@H]1OC(=O)CCCN1CCN(C(=O)c4ccco4)CC1)[C@@H]32` [Compound 26] was tested, and the activity at 10 µM [1] was 87.8%, the activity at 10 µM [2] was 101% and the activity at 10 µM [3] was 88.7%. It also gave an activity at 10 µM [4] of 105%, an activity at 10 µM [5] of 94% and an activity at 10 µM [6] of 75.6%. It also gave an activity at 10 µM [7] of 102%, an activity at 10 µM [8] of 108% and an activity at 10 µM [9] of 77.3%. The activity at 10 µM [10] was 91.6%, the activity at 10 µM [11] was 92.7% and the activity at 10 µM [12] was 76.7%. For the same molecule, the activity at 10 µM [13] was 99.7%, the activity at 10 µM [14] was 69.2% and the activity at 10 µM [15] was 68.3%. It also gave an activity at 10 µM [16] of 112%, an activity at 10 µM [17] of 104% and an activity at 10 µM [18] of 94.2%. For the same molecule, the activity at 10 µM [19] was 93.8%, the activity at 10 µM [20] was 106% and the activity at 10 µM [21] was 107%. For the same molecule, the activity at 10 µM [22] was 103%, the activity at 10 µM [23] was 109% and the activity at 10 µM [24] was 93.4%. The activity at 10 µM [25] was 105%, the activity at 10 µM [26] was 107% and the activity at 10 µM [27] was 109%. For the same molecule, the activity at 10 µM [28] was 101%, the activity at 10 µM [29] was 101% and the activity at 10 µM [30] was 96.1%. It also gave an activity at 10 µM [31] of 103%, an activity at 10 µM [32] of 103% and an activity at 10 µM [33] of 98.8%. For the same molecule, the activity at 10 µM [34] was 103%, the activity at 10 µM [35] was 97.3% and the activity at 10 µM [36] was 112%. The activity at 10 µM [37] was 121%, the activity at 10 µM [38] was 104% and the activity at 10 µM [39] was 96.8%. The activity at 10 µM [40] was 79.8%, the activity at 10 µM [41] was 104% and the activity at 10 µM [42] was 109%.
